Experimental data: patent US20240309018A1, “THIAZOLE-LACTAM-SPIROHETEROCYCLIC COMPOUNDS AND APPLICATIONS THEREOF” (D3 BIO (WUXI) CO., LTD, priority 2021, published 2024)

Legend:
ERK2 kinase = ERK2 kinase (Homo sapiens (Human), UniProt P28482); experiment: ERK2 in vitro kinase activity assay (33P-ATP, MBP substrate, filter-binding); type: biochemical
Description: The ability of the compound to inhibit ERK1 and ERK2 kinase activity was measured.
20 mM Hepes (pH 7.5), 10 mM MgCl2, 1 mM ethylenebis(oxyethylenenitrilo)tetraacetic acid (EGTA), 0.02% Brij35, 0.02 mg/mL bovine serum albumin (BSA), 0.1 mM Na3VO4, 2 mM dithiothreitol (DTT), 1% DMSO.
The assay compound was dissolved in 100% DMSO to prepare a stock solution of specific concentration. The compound was serially diluted in DMSO solution using Integra Viaflo Assist smart pipette.
• 1) The substrate MBP was prepared in freshly prepared reaction buffer; • 2) ERK1 (or ERK2) kinase was added to the above-mentioned MBP solution and mixed gently; • 3) The compound dissolved in 100% DMSO was added to the kinase reaction system using ultrasound technology (Echo550; nanoliter range), and the mixture was incubated at room temperature for 20 minutes; • 4) 33P-ATP (specific concentration of […]) was added to the reaction system, and the reaction was started at this time; • 5) The mixture was incubated at room temperature for 2 hours; • 6) The amount of radioactivity was detected by filter-binding method; • 7) ERK1 (or ERK2) kinase activity was calculated as the ratio of the remaining kinase activity in the assay sample to the kinase activity of the control group (treated by DMSO). Curve was fitted using Prism (GraphPad software) and IC50 values were calculated. • 5.

[1] = In vivo PK study in beagle dogs; set-up: species or system beagle dog; conditions: male beagle dogs
Description: Male beagle dogs were used as assay animals. After a single administration, the plasma concentration of the compound was measured and the pharmacokinetic behavior was evaluated.
Five healthy adult male beagle dogs were selected, wherein 2 were in an intravenous injection group, and 3 were in an oral group. The vehicle in the intravenous injection group was 5% DMSO+95% (20% HP-β-CD). The compound to be assayed was mixed with an appropriate amount of vehicle for intravenous injection, and dissolved with stirring to prepare a clear solution of 0.4 mg/mL. The clear solution was filtered by a microporous membrane, and then ready for use. The vehicle in the oral group was 5% DMSO+95% (20% HP-β-CD). The compound to be assayed was mixed with the vehicle, and dissolved with stirring to prepare a solution of 0.3 mg/mL. […] were administered 1 mg/kg intravenously or 3 mg/kg orally, and then whole blood was collected for a certain period. Plasma was prepared. The drug concentration was analyzed by LC-MS/MS method, and the pharmacokinetic parameters were calculated by Phoenix WinNonlin software (Pharsight, USA).

mouse plasma albumin = experiment: Plasma protein binding (ultracentrifugation), mouse; type: in vitro ADME; further: tested at 0.2 µM
Description: (§1) The binding degree of the assay compound to human/mouse/rat/canine/monkey plasma albumin was studied.
(§2) • 1) Matrix preparation: on the day of the assay, plasma was thawed in cold water and centrifuged at 3220 rpm for 5 min to remove all clots. The pH of the resulting plasma was measured and adjusted to 7.4±0.1 using 1% phosphoric acid or IN sodium hydroxide as needed. • 2) Dilution procedure for the assay compound: the assay compound was dissolved in dimethyl sulfoxide (DMSO) to prepare stock solutions with concentrations of 10 mM and 2 mM, respectively. A 40 μM working solution was prepared by diluting 2 μL of stock solution (2 mM) with 98 μL of DMSO. A 400 μM working solution of the control compound was prepared by diluting 10 μL of stock solution with 240 μL of DMSO. The working solution of the compound (5 μL) was mixed well with a blank matrix (995 μL) at a ratio of 1:200 to prepare a loading matrix.
(§3) • a) An equal volume of 30 μL of loading matrix (n=2) was transferred to a sample collection plate to prepare a time 0 (TO) sample for residue determination. The sample was immediately matched with the corresponding blank buffer to a final volume of 60 μL, and the volume ratio of plasma to buffer in each well was 1:1. […] The mixture was centrifuged at 4000 rpm for 20 min and 100 μL of supernatant from each sample was analyzed by LC-MS/MS.

monkey plasma albumin = experiment: Plasma protein binding (ultracentrifugation), monkey; type: in vitro ADME; further: tested at 0.2 µM
Description: as §1, §2, §3

In vivo PK study in mice = experiment: In vivo PK study in mice; set-up: species or system mouse; conditions: female BALB/c mice
Excerpt: Female BALB/c mice were used as assay animals to determine the blood concentration of the compound and evaluate the pharmacokinetic behavior after a single administration.
Four healthy adult female BALB/c mice were selected, wherein 2 mice were in an intravenous injection group and 2 mice were in an oral group. The vehicle in the intravenous injection group was 5% DMSO+95% (20% HP-β-CD). The compound to be assayed was mixed with an appropriate amount of vehicle for intravenous injection, vortexed and sonicated to prepare a clear solution of 0.5 mg/mL. The clear solution was filtered by a microporous membrane, and then ready for use. The vehicle in the oral group was 5% DMSO+95% (20% HP-β-CD). The compound to be assayed was mixed with the vehicle, vortexed and sonicated to prepare a solution of 0.3 mg/mL. Mice were administered 1 mg/kg intravenously or 3 mg/kg orally, and then whole blood was collected for a certain period. Plasma was prepared. The drug concentration was analyzed by LC-MS/MS method, and the pharmacokinetic parameters were calculated by Phoenix WinNonlin software (Pharsight, USA).

Sequence of ERK2 kinase (P28482 whole entry): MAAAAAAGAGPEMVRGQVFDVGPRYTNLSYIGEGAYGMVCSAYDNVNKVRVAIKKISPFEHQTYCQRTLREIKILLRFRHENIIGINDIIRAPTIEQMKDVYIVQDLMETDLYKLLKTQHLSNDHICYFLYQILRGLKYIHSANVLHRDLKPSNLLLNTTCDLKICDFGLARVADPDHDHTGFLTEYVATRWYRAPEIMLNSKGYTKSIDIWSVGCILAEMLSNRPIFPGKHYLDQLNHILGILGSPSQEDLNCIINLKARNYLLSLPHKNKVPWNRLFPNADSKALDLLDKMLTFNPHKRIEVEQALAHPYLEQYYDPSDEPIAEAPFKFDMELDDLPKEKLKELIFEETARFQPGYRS

Cc1cccc(CN2C(=O)c3nc(-c4nc(Nc5ccnn5C)ncc4C)sc3C23COC3)n1 [WX001]
IC50 (ERK2 kinase): 0.54 nM
clearance ([1]; dog, plasma, intravenous, 1 mg/kg intravenously or 3 mg/kg orally): 10.1 mL/min/kg
Vd ([1]; dog, plasma, intravenous, 1 mg/kg intravenously or 3 mg/kg orally, read-out: Vdss): 1.29 L/kg
half-life ([1]; dog, plasma, 1 mg/kg intravenously or 3 mg/kg orally): 3.48 h
bioavailability ([1]; dog, plasma, 1 mg/kg intravenously, 3 mg/kg orally, oral bioavailability): 60%
Cmax ([1]; dog, single dose, 1 mg/kg intravenously or 3 mg/kg orally, plasma): 1.77 µM
Oral DNAUC ([1]; 3 mg/kg orally, AUCPO/Dose): 2307.32 nM · h/mpk
Plasma protein binding rate (unbound %) (mouse plasma albumin): 11.7%
Plasma protein binding rate (unbound %) (monkey plasma albumin): 14.2%
Oral DNAUC (In vivo PK study in mice; 3 mg/kg orally, AUCPO/Dose): 2935 nM · h/mpk
clearance (In vivo PK study in mice; mouse, plasma, intravenous, 1 mg/kg intravenously or 3 mg/kg orally): 18.9 mL/min/kg
Vd (In vivo PK study in mice; mouse, plasma, intravenous, 1 mg/kg intravenously or 3 mg/kg orally, read-out: Vdss): 1.23 L/kg
half-life (In vivo PK study in mice; mouse, plasma, 1 mg/kg intravenously or 3 mg/kg orally): 1.1 h
bioavailability (In vivo PK study in mice; mouse, plasma, 1 mg/kg intravenously, 3 mg/kg orally, oral bioavailability): 154%
Cmax (In vivo PK study in mice; mouse, single dose, 1 mg/kg intravenously or 3 mg/kg orally, plasma): 4.79 µM
